Measurements reported in patent US12098217B2, “Fusion peptides as antimicrobial agents” (CENTRE NATIONAL DE LA RECHERCHE SCIENTIFIQUE, priority 2019, dated 2024).
≈ marks a conversion by molar mass, not a printed value. Square brackets hold non-standard residues; d marks the D form. Peptide text beside a SMILES is read from it. Cha = N[C@@H](CC1CCCCC1)C(=O)O

Columns and labels:
[1] = test system: E. coli 70S ribosome (^Ec70S); assay: ITC, peptide interaction with E. coli 70S ribosome; format: binding
E. coli D22 strain = assay: microbe, parasite or virus in culture; format: cell-based; conditions: for antibacterial activity, in words: E. coli D22, microdilution broth assay
[2] = ITC 30° C., Table 2B, ^Ec70S, Ni = no specific interaction
[3] = ITC 30° C., Table 2B, ^Ec70S, Ni = no specific interaction, FITC peptides (*) values not well defined
[4] = ITC 25° C., E. coli ribosome (70S)
[5] = ITC, 30° C., E. coli ribosome, FITC-Onc112 series

Row | SMILES | interaction with ^Ec70S, in words ([1]; ITC 30° C.) | MIC (μM) (E. coli D22 strain; D22 strain) [µM] | MIC (μg/ml) (E. coli D22 strain; D22 strain) [µg/mL] | antibacterial activity, in words (E. coli D22 strain) | Kd [1, 2] [nM] | ΔG [1, 3] [kcal/mol] | ΔH [1, 3] [kcal/mol] | −TΔS [1, 3] [kcal/mol] | other results
1 | CC(=O)N[C@@H](CCC(N)=O)C(=O)N[C@@H](CC1CCCCC1)C(=O)N[C@@H](CC(=O)O)C(=O)N[C@@H](CC(C)C)C(=O)N[C@@H](Cc1ccccc1)C(=O)O [Peptide P7, Ac-QChaDLF-OH, reference compound] (Ac-Q[Cha]DLF-OH) | does not specifically bind | >357 | >256 | fails to induce any detectable antibacterial activity |  |  |  |  | Kd (nM) [1, 2]: Ni; ΔG (kcal/mole) [1, 3]: Ni; ΔH (kcal/mole) [1, 3]: Ni; −TΔS (kcal/mole) [1, 3]: Ni
2 | CC[C@H](C)[C@H](NC(=O)[C@@H](CCCNC(=N)N)NC(=O)[C@H](CCCNC(=N)N)NC(=O)[C@@H]1CCCN1C(=O)[C@@H]1CCCN1C(=O)[C@H](CCCNC(=N)N)NC(=O)[C@@H]1CCCN1C(=O)[C@H](CCCNC(=N)N)NC(=O)[C@@H]1CCCN1C(=O)[C@H](CC(C)C)NC(=O)[C@H](Cc1ccc(O)cc1)NC(=O)[C@@H]1CCCN1C(=O)[C@@H]1CCCN1C(=O)[C@H](CCCCN)NC(=O)[C@H](CC(=O)O)NC(=O)[C@@H](N)C(C)C)C(=O)N[C@@H](Cc1ccc(O)cc1)C(=O)N[C@@H](CC(N)=O)C(=O)N[C@H](CCCNC(=N)N)C(N)=O [Peptide P28, reference compound] (H-VDKPPYLPRPRPPR[dR]IYN[dR]-NH2; N-terminus assumed) |  |  |  |  | 84 | -9.82 | -23.9 | 14.0 | Kd [1, 4]: 241 nM; ΔG (kcal/mol) [1, 4]: −9.2 (±0.1) kcal/mol; ΔH (kcal/mol) [1, 4]: −16.2 (±0.3) kcal/mol; affinity for ^Ec70S relative to Py ([1]; ITC 30° C.): fivefold lower; Kd ([1]; ITC 30° C., Table 2B, ^Ec70S, Ni = no specific interaction, listed as Onc112): ~84 nM; Kd [1, 5]: 241 nM; ΔG (kcal/mol) [1, 5]: −9.2 (±0.1) kcal/mol; ΔH (kcal/mol) [1, 5]: −16.2 (±0.3) kcal/mol
3 | CC[C@H](C)[C@H](NC(=O)[C@@H](CCCNC(=N)N)NC(=O)[C@H](CCCNC(=N)N)NC(=O)[C@@H]1CCCN1C(=O)[C@@H]1CCCN1C(=O)[C@H](CCCNC(=N)N)NC(=O)[C@@H]1CCCN1C(=O)[C@H](CCCNC(=N)N)NC(=O)[C@@H]1CCCN1C(=O)[C@H](CC(C)C)NC(=O)[C@H](Cc1ccc(O)cc1)NC(=O)[C@@H]1CCCN1C(=O)[C@@H]1CCCN1C(=O)[C@H](CCCCN)NC(=O)[C@H](CC(=O)O)NC(=O)[C@@H](N)C(C)C)C(=O)N[C@@H](Cc1ccc(O)cc1)C(=O)N[C@@H](CC(N)=O)C(=O)N[C@H](CCCNC(=N)N)C(=O)N[C@@H](CC(N)=O)C(=O)NCC(=O)N1CCC[C@H]1C(=O)N[C@@H](CCCNC(=N)N)C(=O)N[C@@H](CCC(N)=O)C(=O)N[C@@H](CC1CCCCC1)C(=O)N[C@@H](CC(=O)O)C(=O)N[C@@H](CC(C)C)C(=O)N[C@@H](Cc1ccccc1)C(=O)O [Peptide P30] (H-VDKPPYLPRPRPPR[dR]IYN[dR]NGPRQ[Cha]DLF-OH) | efficiently interact | 0.15 to 0.29 | 0.5 to 1 | no increase in the activity | 70.4 | -9.92 | -25.6 | 15.7 | affinity for the ribosome relative to affinity for SC ([1]; from Table 2, ^Ec70S versus ^EcSC): three times higher affinity
4 | CC[C@H](C)[C@H](NC(=O)[C@@H](CCCNC(=N)N)NC(=O)[C@H](CCCNC(=N)N)NC(=O)[C@@H]1CCCN1C(=O)[C@@H]1CCCN1C(=O)[C@H](CCCNC(=N)N)NC(=O)[C@@H]1CCCN1C(=O)[C@H](CCCNC(=N)N)NC(=O)[C@@H]1CCCN1C(=O)[C@H](CC(C)C)NC(=O)[C@H](Cc1ccc(O)cc1)NC(=O)[C@@H]1CCCN1C(=O)[C@@H]1CCCN1C(=O)[C@H](CCCCN)NC(=O)[C@H](CC(=O)O)NC(=O)[C@@H](N)C(C)C)C(=O)N[C@@H](Cc1ccc(O)cc1)C(=O)N[C@@H](CC(N)=O)C(=O)N[C@H](CCCNC(=N)N)C(=O)N[C@@H](CC(N)=O)C(=O)NCC(=O)N1CCC[C@H]1C(=O)N[C@@H](CCCNC(=N)N)C(=O)N[C@@H](CC1CCCCC1)C(=O)N[C@@H](Cc1ccccc1)C(=O)N[C@@H](CCC(N)=O)C(=O)N[C@@H](CC(C)C)C(=O)N[C@@H](CC(=O)O)C(=O)O [Peptide P120] (H-VDKPPYLPRPRPPR[dR]IYN[dR]NGPR[Cha]FQLD-OH) |  | 0.29 to 0.58 | 1 to 2 |  | 101 | -9.85 | -13 | 3.12 | 
5 | CC[C@H](C)[C@H](NC(=O)[C@@H]1CCCN1C(=O)[C@H](CCCNC(=N)N)NC(=O)[C@@H]1CCCN1C(=O)[C@@H]1CCCN1C(=O)[C@@H](NC(=O)[C@@H]1CCCN1C(=O)[C@H](CCCNC(=N)N)NC(=O)[C@@H]1CCCN1C(=O)[C@H](CC(C)C)NC(=O)[C@H](Cc1ccc(O)cc1)NC(=O)[C@H](CO)NC(=O)CNC(=O)[C@H](CCCCN)NC(=O)[C@H](CC(=O)O)NC(=O)[C@@H](NC(=O)[C@H](CCCCN)NC(=O)c1ccc2c(c1)C(=O)OC21c2ccc(O)cc2Oc2cc(O)ccc21)C(C)C)[C@@H](C)O)C(=O)N[C@@H](Cc1ccc(O)cc1)C(=O)N[C@@H](CC(N)=O)C(=O)N[C@@H](CCCNC(=N)N)C(=O)N[C@@H](CC(N)=O)C(=O)NCC(=O)N1CCC[C@H]1C(=O)N[C@@H](CCCNC(=N)N)C(=O)N[C@@H](CCC(N)=O)C(=O)N[C@@H](CC1CCCCC1)C(=O)N[C@@H](CC(=O)O)C(=O)N[C@@H](CC(C)C)C(=O)N[C@@H](Cc1ccccc1)C(=O)O [Peptide P150] |  | 16.9 to 33.8 | 64 to 128 |  |  | -6.27 | -13 | 6.7 | Kd ([1]; ITC 30° C., Table 2B, ^Ec70S, FITC peptides (*), values not well defined, weak interaction): > 10000 nM; factor by which MIC is lower than that of P122 (E. coli D22 strain): 4 to 16; MBC (E. coli D22 strain; D22 strain): 128 µg/mL (≈ 33.7 µM)
